Source: ChEMBL document CHEMBL1201862, “PubChem BioAssay data set” (2004)
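1) Cells in 96-well plates. 2) Compound, 48 h, 5 concentrations. 3) Linear interpolation between surrounding doses. 4) Unreached endpoint = highest concentration. At the GI50, growth is halved.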 The source made the active and inactive calls. Rule as the data show it: active = GI50 up to about 1.1 µM and inactive = higher.

Legend:
Experiment in all cases: inhibition of tumour cell growth, NCI panel, 48 h
EKVX = test system: EKVX
A549 = test system: A549
OVCAR-4 = test system: OVCAR-4
SK-MEL-2 = test system: SK-MEL-2
A498 = test system: A498
HOP-62 = test system: HOP-62
HCT-116 = test system: HCT-116
COLO 205 = test system: COLO 205
786-0 = test system: 786-0
SNB-75 = test system: SNB-75
HT-29 = test system: HT-29
UACC-62 = test system: UACC-62
DU-145 = test system: DU-145
OVCAR-3 = test system: OVCAR-3
MOLT-4 = test system: MOLT-4
UACC-257 = test system: UACC-257
SK-OV-3 = test system: SK-OV-3
PC-3 = test system: PC-3
IGROV-1 = test system: IGROV-1
SK-MEL-28 = test system: SK-MEL-28

Measured: GI50

NCCP(=O)(O)O
inactive: EKVX > 100 µM | A549 > 100 µM | OVCAR-4 > 100 µM | SK-MEL-2 > 100 µM | A498 > 100 µM | HOP-62 > 100 µM | HCT-116 > 100 µM | COLO 205 > 100 µM | 786-0 > 100 µM | SNB-75 > 100 µM | HT-29 > 100 µM | UACC-62 > 100 µM | DU-145 > 100 µM | OVCAR-3 > 100 µM | MOLT-4 > 100 µM | UACC-257 > 100 µM | SK-OV-3 > 100 µM | PC-3 > 100 µM | IGROV-1 > 100 µM | SK-MEL-28 > 100 µM

Cn1c(=O)c2c(O)cc(N)nc2n(C)c1=O
inactive: EKVX > 100 µM | A549 > 100 µM | OVCAR-4 > 100 µM | SK-MEL-2 > 100 µM | A498 > 100 µM | HOP-62 > 100 µM | HCT-116 > 100 µM | COLO 205 > 100 µM | 786-0 > 100 µM | SNB-75 > 100 µM | HT-29 > 100 µM | UACC-62 > 100 µM | DU-145 > 100 µM | OVCAR-3 > 100 µM | MOLT-4 > 100 µM | UACC-257 > 100 µM | SK-OV-3 > 100 µM | PC-3 > 100 µM | IGROV-1 > 100 µM | SK-MEL-28 > 100 µM

CC12CCC(C(Nc3ccccn3)C1=O)C2(C)C (stereo not given)
inactive: EKVX > 100 µM | A549 > 100 µM | OVCAR-4 > 100 µM | SK-MEL-2 > 100 µM | A498 > 100 µM | HOP-62 > 100 µM | HCT-116 > 100 µM | COLO 205 > 100 µM | 786-0 > 100 µM | SNB-75 63 µM | HT-29 > 100 µM | UACC-62 > 100 µM | DU-145 > 100 µM | OVCAR-3 > 100 µM | MOLT-4 > 100 µM | UACC-257 > 100 µM | SK-OV-3 > 100 µM | PC-3 > 100 µM | IGROV-1 > 100 µM | SK-MEL-28 > 100 µM

CCOC(=O)c1c(NS(=O)(=O)c2ccc(Br)cc2)sc2c1CCCC2
inactive: EKVX 4.52 µM | A549 7.78 µM | OVCAR-4 30.1 µM | SK-MEL-2 5.85 µM | A498 9.4 µM | HOP-62 5.9 µM | HCT-116 7.52 µM | COLO 205 13 µM | 786-0 9.31 µM | SNB-75 4.11 µM | HT-29 5.3 µM | UACC-62 6.46 µM | DU-145 8 µM | OVCAR-3 3.93 µM | MOLT-4 4.91 µM | UACC-257 9.23 µM | SK-OV-3 18.5 µM | PC-3 5.41 µM | IGROV-1 4.21 µM | SK-MEL-28 15.8 µM

CC(=O)NCc1nc(C#N)c(N)o1
inactive: EKVX > 100 µM | A549 > 100 µM | OVCAR-4 > 100 µM | SK-MEL-2 > 100 µM | A498 > 100 µM | HOP-62 > 100 µM | HCT-116 > 100 µM | COLO 205 > 100 µM | 786-0 > 100 µM | SNB-75 > 100 µM | HT-29 > 100 µM | UACC-62 > 100 µM | DU-145 > 100 µM | OVCAR-3 > 100 µM | MOLT-4 > 100 µM | UACC-257 > 100 µM | SK-OV-3 > 100 µM | PC-3 > 100 µM | IGROV-1 8.95 µM | SK-MEL-28 > 100 µM

CN1CCN(c2nc3ccccc3nc2C(=O)c2ccc(Cl)cc2)CC1
inactive: EKVX 86.3 µM | A549 54.2 µM | OVCAR-4 58.6 µM | SK-MEL-2 58.5 µM | A498 41.7 µM | HOP-62 59.4 µM | HCT-116 35.2 µM | COLO 205 35.8 µM | 786-0 33.1 µM | SNB-75 > 100 µM | HT-29 38.2 µM | UACC-62 28.5 µM | DU-145 > 100 µM | OVCAR-3 44 µM | MOLT-4 65 µM | UACC-257 36.1 µM | SK-OV-3 > 100 µM | PC-3 51.2 µM | IGROV-1 83.6 µM | SK-MEL-28 50.7 µM

CC(=O)Oc1c(C)c2c(c3ncccc13)OC(C)C2 (stereo not given)
inactive: EKVX 17.1 µM | A549 13.4 µM | OVCAR-4 16.3 µM | SK-MEL-2 18.1 µM | A498 20 µM | HOP-62 17.1 µM | HCT-116 14.9 µM | COLO 205 19.4 µM | 786-0 12.8 µM | SNB-75 14.8 µM | HT-29 18.8 µM | UACC-62 12.2 µM | DU-145 16.2 µM | OVCAR-3 32.4 µM | MOLT-4 6.41 µM | UACC-257 14.8 µM | SK-OV-3 21 µM | PC-3 26 µM | IGROV-1 6.98 µM | SK-MEL-28 13.9 µM

CN1C(=O)C(O)CC1c1cccc(F)c1 (stereo not given)
inactive: EKVX > 100 µM | A549 > 100 µM | OVCAR-4 > 100 µM | SK-MEL-2 > 100 µM | A498 > 100 µM | HOP-62 > 100 µM | HCT-116 > 100 µM | COLO 205 > 100 µM | 786-0 > 100 µM | SNB-75 55.7 µM | HT-29 > 100 µM | UACC-62 > 100 µM | DU-145 > 100 µM | OVCAR-3 > 100 µM | MOLT-4 > 100 µM | UACC-257 > 100 µM | SK-OV-3 > 100 µM | PC-3 > 100 µM | IGROV-1 > 100 µM | SK-MEL-28 > 100 µM

Nc1nc(O)nc2c1ncn2C1OC(CO)C(O)C1O (stereo not given)
inactive: EKVX > 100 µM | A549 > 100 µM | OVCAR-4 37 µM | SK-MEL-2 64.4 µM | A498 > 100 µM | HOP-62 > 100 µM | HCT-116 45 µM | COLO 205 > 100 µM | 786-0 97.5 µM | SNB-75 6.18 µM | HT-29 > 100 µM | UACC-62 > 100 µM | DU-145 23.5 µM | OVCAR-3 52.7 µM | MOLT-4 26.1 µM | UACC-257 > 100 µM | SK-OV-3 40.2 µM | PC-3 22.6 µM | IGROV-1 > 100 µM | SK-MEL-28 > 100 µM
